# From PubChem BioAssay AID1259408 (Genetic Toxicology Data Bank (GENE-TOX), 2018)
# Active and inactive are the calls of the source. How the calls were made is not given here.
# System: GENE-TOX genotoxicity assays, various organisms and cells
# Assay: GENE-TOX mutagenicity studies
# Conditions: for call: Assay Type: In vivo carcinogenicity studies
# [1] = Species/Cell Type: Mouse, Sex: Male, Assay Type: Sperm morphology, Assay Code: SPI-, Evaluation Type: Evaluation A (Pre-1980)
# [2] = Species/Cell Type: Nonhuman, Assay Code: CCG-, Evaluation Type: Evaluation A (Pre-1980)
# [3] = Species/Cell Type: Nonhuman, Assay Type: Sister-chromatid exchange (SCE) in vitro, Assay Code: SC2+D, Dose Response: With dose response, Evaluation Type: Evaluation B (Post-1980)
# [4] = Species/Cell Type: Salmonella typhimurium (one or more of the five standard strains: TA98, TA100, TA1535, TA1537, and TA1538), Assay Type: Histidine reverse gene mutation, Ames assay, Assay Code: SALT, Evaluation Type: Evaluation A (Pre-1980)
# [5] = Species/Cell Type: Mammalian polychromatic erythrocytes, Assay Type: Micronucleus test, chromosome aberrations, Assay Code: MNT+, Evaluation Type: Evaluation B (Post-1980)
# [6] = Species/Cell Type: Human, Assay Type: Sister-chromatid exchange (SCE) in vitro, Assay Code: SC1T, Evaluation Type: Evaluation B (Post-1980)
# [7] = Species/Cell Type: Saccharomyces cerevisiae, Assay Type: Reverse gene mutation, Assay Code: YERT, Evaluation Type: Evaluation A (Pre-1980)
# [8] = Species/Cell Type: Salmonella typhimurium (one or more of the five standard strains: TA98, TA100, TA1535, TA1537, and TA1538), Assay Type: Histidine reverse gene mutation, Ames assay, Assay Code: SAL+*, Activation: With metabolic activation, Evaluation Type: Evaluation A (Pre-1980)
# [9] = Species/Cell Type: Allium cepa, Assay Type: Chromosome aberrations, Assay Code: ALC-, Evaluation Type: Evaluation A (Pre-1980)
# [10] = Species/Cell Type: Drosophila melanogaster, Assay Type: Sex-linked recessive lethal gene mutation, Assay Code: SRLT, Evaluation Type: Evaluation A (Pre-1980)
compound,measurement,setting,value
Nc1ccc([N+](=O)[O-])cc1N,mutagenic call,"Species/Cell Type: Drosophila melanogaster, Assay Type: Sex-linked recessive lethal gene mutation, Assay Code: SRL+, Evaluation Type: Evaluation A (Pre-1980)",active; positive
same,mutagenic call,"Species/Cell Type: Fischer rat embryo (RLV/1706) cells, Assay Type: Cell transformation, viral enhanced, Assay Code: CTR+, Evaluation Type: Evaluation A (Pre-1980)",active; positive
same,mutagenic call,"Species/Cell Type: Human diploid fibroblasts, Assay Type: Unscheduled DNA synthesis (UDS) in vitro, DNA effects, Assay Code: UDHT, Evaluation Type: Evaluation A (Pre-1980)",no conclusion
same,mutagenic call,"Species/Cell Type: Mammalian polychromatic erythrocytes, Assay Type: Micronucleus test, chromosome aberrations, Assay Code: MNTT, Evaluation Type: Evaluation A (Pre-1980)",no conclusion
same,mutagenic call,"Species/Cell Type: Mouse (C3H/10T1/2) cells, Assay Type: Cell transformation, Assay Code: CTH+, Evaluation Type: Evaluation A (Pre-1980)",active; positive
same,mutagenic call,[1],inactive; negative
same,mutagenic call,"Species/Cell Type: Neurospora crassa, Assay Type: Aneuploidy, chromosome aberrations, Assay Code: NEN-, Evaluation Type: Evaluation A (Pre-1980)",inactive; negative
same,mutagenic call,"Species/Cell Type: Nonhuman, Assay Type: Chromosome aberrations in vitro, Assay Code: CY&+D, Dose Response: With dose response, Evaluation Type: Evaluation A (Pre-1980)",active; positive
same,call,[2],inactive; negative
same,mutagenic call,"Species/Cell Type: Nonhuman, Assay Type: Sister-chromatid exchange (SCE) in vitro, Assay Code: SC2+D, Dose Response: With dose response, Evaluation Type: Evaluation A (Pre-1980)",active; positive
same,mutagenic call,"Species/Cell Type: Nonhuman, Sex: Male, Assay Type: Sister-chromatid exchange (SCE) in vivo, Assay Code: SC3TM, Evaluation Type: Evaluation B (Post-1980)",no conclusion
same,mutagenic call,"Species/Cell Type: Rodents, Sex: Male, Assay Type: Dominant lethal test, Assay Code: DLTT, Evaluation Type: Evaluation A (Pre-1980)",no conclusion
same,mutagenic call,"Species/Cell Type: Saccharomyces cerevisiae, Assay Type: Reverse gene mutation, Assay Code: YER-, Evaluation Type: Evaluation A (Pre-1980)",inactive; negative
same,mutagenic call,"Species/Cell Type: Salmonella typhimurium (one or more of the five standard strains: TA98, TA100, TA1535, TA1537, and TA1538), Assay Type: Histidine reverse gene mutation, Ames assay, Assay Code: SAL+, Evaluation Type: Evaluation A (Pre-1980)",active; positive
same,mutagenic call,"Species/Cell Type: Salmonella typhimurium, Assay Type: Forward and reverse gene mutation, body fluid assay, Assay Code: BFU+, Evaluation Type: Evaluation A (Pre-1980)",active; positive
same,mutagenic call,"Species/Cell Type: Syrian hamster embryo (SHE) cells, Assay Type: Cell transformation, clonal assay, Assay Code: CTC+, Evaluation Type: Evaluation A (Pre-1980)",active; positive
C[C@@H](CC[C@H](C)OS(C)(=O)=O)OS(C)(=O)=O,mutagenic call,"Species/Cell Type: Rodents, Sex: Male, Assay Type: Dominant lethal test, Assay Code: DLT+, Evaluation Type: Evaluation A (Pre-1980)",active; positive
CCCCNC(N)=O,mutagenic call,"Species/Cell Type: Nonhuman, Assay Type: Chromosome aberrations in vitro, Assay Code: CY&-, Evaluation Type: Evaluation A (Pre-1980)",inactive; negative
same,mutagenic call,"Species/Cell Type: Nonhuman, Assay Type: Sister-chromatid exchange (SCE) in vitro, Assay Code: SC2+, Evaluation Type: Evaluation A (Pre-1980)",active; positive
O=c1[nH]c(=O)n([C@H]2C[C@H](O)[C@@H](CO)O2)cc1Cl,mutagenic call,"Species/Cell Type: Chinese hamster ovary (CHO) cells, Assay Type: Forward gene mutation at the HPRT locus, Assay Code: CHO+, Evaluation Type: Evaluation B (Post-1980)",active; positive
same,mutagenic call,[3],active; positive
CCCCN(CC(O)CC(=O)O)N=O (stereo not given),mutagenic call,[4],no conclusion
CCOc1ccc2c(c1)C(C)=CC(C)(C)N2,mutagenic call,"Species/Cell Type: Drosophila melanogaster, Assay Type: Sex-linked recessive lethal gene mutation, Assay Code: SRL-, Evaluation Type: Evaluation A (Pre-1980)",inactive; negative
same,mutagenic call,"Species/Cell Type: Salmonella typhimurium (one or more of the five standard strains: TA98, TA100, TA1535, TA1537, and TA1538), Assay Type: Histidine reverse gene mutation, Ames assay, Assay Code: SAL-, Evaluation Type: Evaluation A (Pre-1980)",inactive; negative
CC(C)CCC[C@@H](C)[C@H]1CC[C@H]2[C@@H]3CC=C4C[C@@H](O)CC[C@]4(C)[C@H]3CC[C@]12C,mutagenic call,"Species/Cell Type: Syrian hamster embryo (SHE) cells, Assay Type: Cell transformation, clonal assay, Assay Code: CTC-, Evaluation Type: Evaluation A (Pre-1980)",inactive; negative
[O-][Br+2]([O-])O,mutagenic call,[5],active; positive
Cc1ncc([N+](=O)[O-])n1CC(=O)O,mutagenic call,"Species/Cell Type: Human lymphocytes, Assay Type: Sister-chromatid exchange (SCE) in vitro, Assay Code: SCLT, Evaluation Type: Evaluation B (Post-1980)",no conclusion
same,mutagenic call,[6],no conclusion
O=Nc1ccc(Nc2ccccc2)cc1,call,"Species/Cell Type: Nonhuman, Assay Code: CCG+, Evaluation Type: Evaluation A (Pre-1980)",active; positive
NNC(=O)COc1ccc(Br)cc1CN1CCOCC1,mutagenic call,[7],no conclusion
Nc1ccc(I)cc1,mutagenic call,[1],inactive; negative
[O][Cl+][O-],mutagenic call,"Species/Cell Type: Mammalian polychromatic erythrocytes, Assay Type: Micronucleus test, chromosome aberrations, Assay Code: MNTT, Evaluation Type: Evaluation B (Post-1980)",no conclusion
Oc1c(Br)cc(Br)c2cccnc12,mutagenic call,[4],no conclusion
Cc1ccc2ccc3cc4ccccc4cc3c2c1,mutagenic call,[3],active; positive
same,mutagenic call,[8],active; positive
CN[C@H]1C[C@H](O[C@H]2C[C@](O)(C(C)=O)Cc3c(O)c4c(c(O)c32)C(=O)c2c(OC)cccc2C4=O)O[C@@H](C)[C@H]1O,mutagenic call,[8],active; positive
O=[N+]([O-])c1c2ccccc2c2ccc3cccc4ccc1c2c43,mutagenic call,"Species/Cell Type: Chinese hamster ovary (CHO) cells, Assay Type: Forward gene mutation at the HPRT locus, Assay Code: CHOT, Evaluation Type: Evaluation B (Post-1980)",no conclusion
same,mutagenic call,[8],active; positive
COc1ccc2c(c1)c(CC(=O)O)c(C)n2C(=O)c1ccc(Cl)cc1,mutagenic call,"Species/Cell Type: Human lymphocytes, Assay Type: Sister-chromatid exchange (SCE) in vivo, Assay Code: SCY+, Evaluation Type: Evaluation B (Post-1980)",active; positive
same,mutagenic call,[6],no conclusion
same,mutagenic call,[5],active; positive
same,mutagenic call,"Species/Cell Type: Nonhuman, Assay Type: Sister-chromatid exchange (SCE) in vitro, Assay Code: SC2T, Evaluation Type: Evaluation B (Post-1980)",no conclusion
BrCCCCCBr,mutagenic call,"Species/Cell Type: Escherichia coli polA (W3119 vs P3478), Assay Type: Rec-assay, DNA effects (bacterial DNA repair), Assay Code: RE1+, Evaluation Type: Evaluation A (Pre-1980)",active; positive
O=C(OCC1CCN2CCC(OC(=O)c3ccc([N+](=O)[O-])cc3)C12)c1ccc([N+](=O)[O-])cc1 (stereo not given),mutagenic call,[9],inactive; negative
c1ccc2[nH]c(-c3cscn3)nc2c1,mutagenic call,"Species/Cell Type: Aspergillus nidulans, Assay Type: Aneuploidy, chromosome aberrations, Assay Code: ASN+, Evaluation Type: Evaluation A (Pre-1980)",active; positive
same,mutagenic call,"Species/Cell Type: Aspergillus nidulans, Assay Type: Mitotic recombination, Assay Code: ASGT, Evaluation Type: Evaluation A (Pre-1980)",no conclusion
same,mutagenic call,[5],active; positive
C=C(C)[C@H]1O[C@H]2CC[C@@]3(C)[C@@](O)(CC[C@H]4[C@@H]5OC(C)(C)[C@H]6C[C@@H]7C(=C)Cc8c(Cl)cc9[nH]c(c5c9c8[C@@]76O)[C@@]43C)[C@]23O[C@@H]3[C@H]1O,mutagenic call,"Species/Cell Type: Saccharomyces cerevisiae, Assay Type: Mitotic recombination or gene conversion, Assay Code: YEH-, Evaluation Type: Evaluation A (Pre-1980)",inactive; negative
same,mutagenic call,[4],no conclusion
CC1=CCc2c1c(C)cc1c2ccc2ccccc21,mutagenic call,[8],active; positive
O=S1(=O)CC=CC1,call,[2],inactive; negative
CCc1nc(N)nc(N)c1-c1ccc(Cl)cc1,mutagenic call,[4],no conclusion
O=c1cccc2cc(O)c(O)c(O)c2c1O,mutagenic call,[9],inactive; negative
O=C(Cn1ccnc1[N+](=O)[O-])NCc1ccccc1,mutagenic call,[5],active; positive
O=C(COc1ccc(Br)cc1CN1CCCCC1)N/N=C/c1ccccc1O,mutagenic call,[7],no conclusion
CN=NNc1c(Cl)cc(Cl)cc1Cl,mutagenic call,[10],no conclusion
CN(CCCCCC(=O)OC[C@H](N)C(=O)O)N=O,mutagenic call,"Species/Cell Type: Escherichia coli polA (W3110 vs P3478), Assay Type: Rec-assay, DNA effects (bacterial DNA repair), Assay Code: RE2T, Evaluation Type: Evaluation A (Pre-1980)",no conclusion
same,mutagenic call,"Species/Cell Type: Escherichia coli polA (W3119 vs P3478), Assay Type: Rec-assay, DNA effects (bacterial DNA repair), Assay Code: RE1T, Evaluation Type: Evaluation A (Pre-1980)",no conclusion
[Cl][Rh]([Cl])[Cl],mutagenic call,"Species/Cell Type: Bacillus subtilis (H17 vs M45), Assay Type: Rec-assay, spot test, DNA effects (bacterial DNA repair), Assay Code: REW+, Evaluation Type: Evaluation A (Pre-1980)",active; positive
O[C@@H]1c2cccc3ccc4cc5ccccc5c(c4c23)[C@H]1O,mutagenic call,"Species/Cell Type: Chinese hamster lung (V79) cells, Assay Type: Forward gene mutation at the HPRT or ouabain locus, Assay Code: V79+, Evaluation Type: Evaluation A (Pre-1980)",active; positive
same,mutagenic call,[4],no conclusion
COC(=O)C1=CCCN(N=O)C1,mutagenic call,[10],no conclusion
same,mutagenic call,[8],active; positive
CC(C)OC(=O)Nc1ccccc1,mutagenic call,"Species/Cell Type: Vicia faba, Assay Type: Chromosome aberrations, Assay Code: VIC+D, Dose Response: With dose response, Evaluation Type: Evaluation A (Pre-1980)",active; positive
O.O.O.O.O.O.[Cl-].[Cl-].[Cl-].[Fe+3],mutagenic call,"Species/Cell Type: Nonhuman, Assay Type: Sister-chromatid exchange (SCE) in vitro, Assay Code: SC2-, Evaluation Type: Evaluation B (Post-1980)",inactive; negative
